What was measured:
Assay in all cases: cells
Conditions in all cases: Homo sapiens
[1] = system: MV4-11; type: functional, cell-based, MV-4-11;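 note: cell viability readout measuring growth inhibition of human MV-4-11 cells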
Description: SANGER: Inhibition of human MV-4-11 cell growth in a cell viability assay.

[2] = system: ES5; type: functional, cell-based;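 note: growth inhibition of human ES5 cells, read out by a cell viability assay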
Description: SANGER: Inhibition of human ES5 cell growth in a cell viability assay.

[3] = system: NCI-H1770; type: functional, cell-based;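 note: growth inhibition of NCI-H1770 cells determined with a viability readout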
Description: SANGER: Inhibition of human NCI-H1770 cell growth in a cell viability assay.

[4] = system: HuTu80; type: functional, cell-based, HUTU-80;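 note: growth inhibition of HuTu80 human cells, determined with a cell viability readout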
Description: SANGER: Inhibition of human HUTU-80 cell growth in a cell viability assay.

[5] = system: KARPAS-45; type: functional, cell-based;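 note: inhibition of cell line growth, read out through a viability assay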
Description: SANGER: Inhibition of human KARPAS-45 cell growth in a cell viability assay.

[6] = system: MHH-PREB-1; type: functional, cell-based;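 note: cell viability assay measuring inhibition of proliferation of human MHH-PREB-1 cells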
Description: SANGER: Inhibition of human MHH-PREB-1 cell growth in a cell viability assay.

[7] = system: D-502MG; type: functional, cell-based
Description: SANGER: Inhibition of human D-502MG cell growth in a cell viability assay.

[8] = system: MEG-01; type: functional, cell-based;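 note: growth inhibition of MEG-01 cells, read out by a cell viability assay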
Description: SANGER: Inhibition of human MEG-01 cell growth in a cell viability assay.

[9] = system: GT3TKB; type: functional, cell-based;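 note: growth inhibition of the cell line, read out with a cell viability assay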
Description: SANGER: Inhibition of human GT3TKB cell growth in a cell viability assay.

[10] = system: NMC-G1; type: functional, cell-based;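 note: growth inhibition of the NMC-G1 cell line, measured with a cell viability read-out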
Description: SANGER: Inhibition of human NMC-G1 cell growth in a cell viability assay.

[11] = system: RPMI-8866; type: functional, cell-based
Description: SANGER: Inhibition of human RPMI-8866 cell growth in a cell viability assay.

[12] = system: COR-L88; type: functional, cell-based;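 note: growth inhibition of COR-L88 cells, read out with a cell viability assay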
Description: SANGER: Inhibition of human COR-L88 cell growth in a cell viability assay.

[13] = system: KARPAS-299; type: functional, cell-based
Description: SANGER: Inhibition of human KARPAS-299 cell growth in a cell viability assay.

[14] = system: JVM-2; type: functional, cell-based;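 note: growth inhibition of JVM-2 cells determined by a cell viability assay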
Description: SANGER: Inhibition of human JVM-2 cell growth in a cell viability assay.

[15] = system: DB; type: functional, cell-based
Description: SANGER: Inhibition of human DB cell growth in a cell viability assay.

[16] = system: SHP77; type: functional, cell-based, SHP-77;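 note: growth inhibition of human SHP-77 cells measured by a cell viability assay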
Description: SANGER: Inhibition of human SHP-77 cell growth in a cell viability assay.

[17] = system: QIMR-WIL; type: functional, cell-based;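 note: growth inhibition of QIMR-WIL cells, read out with a cell viability assay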
Description: SANGER: Inhibition of human QIMR-WIL cell growth in a cell viability assay.

[18] = system: IST-MES1; type: functional, cell-based;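 note: growth inhibition of IST-MES1 cells, measured with a cell viability assay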
Description: SANGER: Inhibition of human IST-MES1 cell growth in a cell viability assay.

[19] = system: Lu-65; type: functional, cell-based;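 note: growth inhibition of Lu-65 cancer cells, read out by a cell viability assay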
Description: SANGER: Inhibition of human LU-65 cell growth in a cell viability assay.

[20] = system: HL-60; type: functional, cell-based;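 note: growth inhibition of human HL-60 cells, read out with a cell viability assay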
Description: SANGER: Inhibition of human HL-60 cell growth in a cell viability assay.

[21] = system: SK-N-FI; type: functional, cell-based;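 note: cell viability assay measuring growth inhibition of human SK-N-FI cells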
Description: SANGER: Inhibition of human SK-N-FI cell growth in a cell viability assay.

[22] = system: OCUB-M; type: functional, cell-based;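 note: growth inhibition of the cancer cell line, read out through a cell viability assay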
Description: SANGER: Inhibition of human OCUB-M cell growth in a cell viability assay.

[23] = system: HH; type: functional, cell-based
Description: SANGER: Inhibition of human HH cell growth in a cell viability assay.

[24] = system: LU-134-A; type: functional, cell-based
Description: SANGER: Inhibition of human LU-134-A cell growth in a cell viability assay.

[25] = system: NTERA-2-cl-D1; type: functional, cell-based;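 note: inhibition of cell growth, measured with a cell viability assay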
Description: SANGER: Inhibition of human NTERA-S-cl-D1 cell growth in a cell viability assay.

[26] = system: NCI-H1581; type: functional, cell-based;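 note: cell growth inhibition read out by a viability assay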
Description: SANGER: Inhibition of human NCI-H1581 cell growth in a cell viability assay.

[27] = system: EW-1; type: functional, cell-based;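 note: growth inhibition of the human EW-1 cell line, read out by a cell viability assay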
Description: SANGER: Inhibition of human EW-1 cell growth in a cell viability assay.

[28] = system: SW 962; type: functional, cell-based;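 note: growth inhibition of human SW962 cells, read out by a cell viability assay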
Description: SANGER: Inhibition of human SW962 cell growth in a cell viability assay.

[29] = system: SK-PN-DW; type: functional, cell-based;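 note: growth inhibition measured with a viability assay on these cells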
Description: SANGER: Inhibition of human SK-PN-DW cell growth in a cell viability assay.

[30] = system: Calu-6; type: functional, cell-based;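 note: growth of human Calu-6 cells, read out by a cell viability assay, IC50 marking inhibition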
Description: SANGER: Inhibition of human Calu-6 cell growth in a cell viability assay.

[31] = system: OVCAR-4; type: functional, cell-based;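 note: growth inhibition of human OVCAR-4 cells, measured with a cell viability assay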
Description: SANGER: Inhibition of human OVCAR-4 cell growth in a cell viability assay.

[32] = system: IA-LM; type: functional, cell-based;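 note: cell viability assay measuring growth inhibition of human IA-LM cells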
Description: SANGER: Inhibition of human IA-LM cell growth in a cell viability assay.

[33] = system: ES8; type: functional, cell-based;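 note: growth inhibition of human ES8 cells, read out with a cell viability assay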
Description: SANGER: Inhibition of human ES8 cell growth in a cell viability assay.

[34] = system: SNU1; type: functional, cell-based;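 note: growth inhibition of human NCI-SNU-1 cells, measured with a cell viability assay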
Description: SANGER: Inhibition of human NCI-SNU-1 cell growth in a cell viability assay.

[35] = system: GI-ME-N; type: functional, cell-based;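 note: growth inhibition of human GI-ME-N cells, read out with a cell viability assay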
Description: SANGER: Inhibition of human GI-ME-N cell growth in a cell viability assay.

[36] = system: A4-Fuk; type: functional, cell-based;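 note: growth inhibition of A4-Fuk cells, read out by a cell viability assay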
Description: SANGER: Inhibition of human A4-Fuk cell growth in a cell viability assay.

[37] = system: MZ7-mel; type: functional, cell-based;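 note: growth inhibition of human MZ7-mel cells, measured by a cell viability assay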
Description: SANGER: Inhibition of human MZ7-mel cell growth in a cell viability assay.

[38] = system: HT-144; type: functional, cell-based
Description: SANGER: Inhibition of human HT-144 cell growth in a cell viability assay.

[39] = system: L-363; type: functional, cell-based
Description: SANGER: Inhibition of human L-363 cell growth in a cell viability assay.

[40] = system: JAR; type: functional, cell-based;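 note: growth inhibition of human JAR cells determined with a cell viability assay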
Description: SANGER: Inhibition of human JAR cell growth in a cell viability assay.

[41] = system: A3-KAW; type: functional, cell-based;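 note: growth inhibition of human A3-KAW cells, read out with a cell viability assay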
Description: SANGER: Inhibition of human A3-KAW cell growth in a cell viability assay.

[42] = system: LAN-6; type: functional, cell-based;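 note: growth inhibition of LAN-6 cells, determined with a cell viability assay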
Description: SANGER: Inhibition of human LAN-6 cell growth in a cell viability assay.

[43] = system: ES3; type: functional, cell-based;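 note: growth inhibition of ES3 cells, read out with a cell viability assay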
Description: SANGER: Inhibition of human ES3 cell growth in a cell viability assay.

[44] = system: MOLT-4; type: functional, cell-based;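 note: growth inhibition of MOLT-4 cells, determined with a cell viability readout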
Description: SANGER: Inhibition of human MOLT-4 cell growth in a cell viability assay.

[45] = system: J-RT3-T3-5; type: functional, cell-based;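 note: cell viability assay measuring growth inhibition of human J-RT3-T3-5 cells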
Description: SANGER: Inhibition of human J-RT3-T3-5 cell growth in a cell viability assay.

[46] = system: KALS-1; type: functional, cell-based;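 note: growth inhibition of KALS-1 cells, determined with a cell viability assay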
Description: SANGER: Inhibition of human KALS-1 cell growth in a cell viability assay.

[47] = system: D283 Med; type: functional, cell-based
Description: SANGER: Inhibition of human D-283MED cell growth in a cell viability assay.

[48] = system: LB2518-MEL; type: functional, cell-based;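 note: growth inhibition of human LB2518-MEL cells, measured with a cell viability assay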
Description: SANGER: Inhibition of human LB2518-MEL cell growth in a cell viability assay.

[49] = system: KMOE-2; type: functional, cell-based;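 note: growth inhibition of human KMOE-2 cells, read out with a cell viability assay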
Description: SANGER: Inhibition of human KMOE-2 cell growth in a cell viability assay.

[50] = system: CP66-MEL; type: functional, cell-based;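 note: growth inhibition of CP66-MEL cells determined in a cell viability assay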
Description: SANGER: Inhibition of human CP66-MEL cell growth in a cell viability assay.

[51] = system: K5; type: functional, cell-based
Description: SANGER: Inhibition of human K5 cell growth in a cell viability assay.

[52] = system: A704; type: functional, cell-based;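 note: growth inhibition of human A704 cells, read out with a cell viability assay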
Description: SANGER: Inhibition of human A704 cell growth in a cell viability assay.

[53] = system: DEL; type: functional, cell-based;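 note: growth inhibition of the human DEL cell line, read out with a cell viability assay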
Description: SANGER: Inhibition of human DEL cell growth in a cell viability assay.

[54] = system: RXF 393; type: functional, cell-based;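 note: growth inhibition of human RXF 393 cells, read out with a cell viability assay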
Description: SANGER: Inhibition of human RXF393 cell growth in a cell viability assay.

[55] = system: MLMA; type: functional, cell-based;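 note: growth inhibition of MLMA cells (human), determined through a cell viability readout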
Description: SANGER: Inhibition of human MLMA cell growth in a cell viability assay.

[56] = system: UACC-257; type: functional, cell-based
Description: SANGER: Inhibition of human UACC-257 cell growth in a cell viability assay.

[57] = system: ONS-76; type: functional, cell-based;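 note: growth inhibition of human ONS-76 cells, read out with a cell viability assay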
Description: SANGER: Inhibition of human ONS-76 cell growth in a cell viability assay.

[58] = system: LC-2-ad; type: functional, cell-based;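 note: growth inhibition of human LC-2-ad cells, read out with a cell viability assay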
Description: SANGER: Inhibition of human LC-2-ad cell growth in a cell viability assay.

[59] = system: DOHH-2; type: functional, cell-based;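 note: growth inhibition of human DOHH-2 cells, read out with a cell viability assay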
Description: SANGER: Inhibition of human DOHH-2 cell growth in a cell viability assay.

[60] = system: GAK; type: functional, cell-based;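 note: cell growth inhibition read out by a cell viability assay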
Description: SANGER: Inhibition of human GAK cell growth in a cell viability assay.

[61] = system: TE-10; type: functional, cell-based
Description: SANGER: Inhibition of human TE-10 cell growth in a cell viability assay.

[62] = system: TE-11; type: functional, cell-based
Description: SANGER: Inhibition of human TE-11 cell growth in a cell viability assay.

[63] = system: SBC-1; type: functional, cell-based
Description: SANGER: Inhibition of human SBC-1 cell growth in a cell viability assay.

[64] = system: CW-2; type: functional, cell-based
Description: SANGER: Inhibition of human CW-2 cell growth in a cell viability assay.

[65] = system: LOX IMVI; type: functional, cell-based
Description: SANGER: Inhibition of human LOXIMVI cell growth in a cell viability assay.

[66] = system: KM12; type: functional, cell-based
Description: SANGER: Inhibition of human KM12 cell growth in a cell viability assay.

## Cn1cc(/C=C2\C(=O)Nc3cccnc32)c2ccccc21
[1]
  IC50: 295 nM
[2]
  IC50: > 2000 nM
[3]
  IC50: > 2000 nM
[4]
  IC50: > 2000 nM
[5]
  IC50: > 2000 nM
[6]
  IC50: > 2000 nM
[7]
  IC50: > 2000 nM
[8]
  IC50: > 2000 nM
[9]
  IC50: > 2000 nM
[10]
  IC50: > 2000 nM
[11]
  IC50: > 2000 nM
[12]
  IC50: > 2000 nM
[13]
  IC50: > 2000 nM
[14]
  IC50: > 2000 nM
[15]
  IC50: > 2000 nM
[16]
  IC50: > 2000 nM
[17]
  IC50: > 2000 nM
[18]
  IC50: > 2000 nM
[19]
  IC50: > 2000 nM
[20]
  IC50: > 2000 nM
[21]
  IC50: > 2000 nM
[22]
  IC50: > 2000 nM
[23]
  IC50: > 2000 nM
[24]
  IC50: > 2000 nM
[25]
  IC50: > 2000 nM
[26]
  IC50: > 2000 nM
[27]
  IC50: > 2000 nM
[28]
  IC50: > 2000 nM
[29]
  IC50: > 2000 nM
[30]
  IC50: > 2000 nM
[31]
  IC50: > 2000 nM
[32]
  IC50: > 2000 nM
[33]
  IC50: > 2000 nM
[34]
  IC50: > 2000 nM
[35]
  IC50: > 2000 nM
[36]
  IC50: > 2000 nM
[37]
  IC50: > 2000 nM
[38]
  IC50: > 2000 nM
[39]
  IC50: > 2000 nM
[40]
  IC50: 972 nM
[41]
  IC50: > 2000 nM
[42]
  IC50: > 2000 nM
[43]
  IC50: > 2000 nM
[44]
  IC50: > 2000 nM
[45]
  IC50: > 2000 nM
[46]
  IC50: > 2000 nM
[47]
  IC50: > 2000 nM
[48]
  IC50: > 2000 nM
[49]
  IC50: > 2000 nM
[50]
  IC50: > 2000 nM
[51]
  IC50: > 2000 nM
[52]
  IC50: > 2000 nM
[53]
  IC50: > 2000 nM
[54]
  IC50: > 2000 nM
[55]
  IC50: > 2000 nM
[56]
  IC50: 1530 nM
[57]
  IC50: > 2000 nM
[58]
  IC50: > 2000 nM
[59]
  IC50: > 2000 nM
[60]
  IC50: > 2000 nM
[61]
  IC50: > 2000 nM
[62]
  IC50: > 2000 nM
[63]
  IC50: > 2000 nM
[64]
  IC50: > 2000 nM
[65]
  IC50: > 2000 nM
[66]
  IC50: 1940 nM

## Fc1cc(-c2cc[nH]/c(=N/c3ccc(-n4cnc(N5CCOCC5)n4)cc3)n2)cc(N2CCOCC2)c1
[1]
  IC50: 545 nM
[2]
  IC50: > 5120 nM
[3]
  IC50: 805 nM
[4]
  IC50: 4230 nM
[5]
  IC50: 795 nM
[6]
  IC50: 430 nM
[7]
  IC50: 1050 nM
[8]
  IC50: 684 nM
[9]
  IC50: 302 nM
[10]
  IC50: 1100 nM
[11]
  IC50: 1180 nM
[12]
  IC50: 2570 nM
[13]
  IC50: 380 nM
[14]
  IC50: 3300 nM
[15]
  IC50: 611 nM
[16]
  IC50: 825 nM
[17]
  IC50: 343 nM
[18]
  IC50: 1970 nM
[19]
  IC50: 1660 nM
[20]
  IC50: 546 nM
[21]
  IC50: > 5120 nM
[22]
  IC50: 3030 nM
[23]
  IC50: > 5120 nM
[24]
  IC50: 594 nM
[25]
  IC50: 316 nM
[26]
  IC50: 1340 nM
[27]
  IC50: 546 nM
[28]
  IC50: > 5120 nM
[29]
  IC50: 669 nM
[30]
  IC50: 518 nM
[31]
  IC50: 467 nM
[32]
  IC50: 371 nM
[33]
  IC50: 135 nM
[34]
  IC50: 458 nM
[35]
  IC50: 1440 nM
[36]
  IC50: 972 nM
[37]
  IC50: 2900 nM
[38]
  IC50: 147 nM
[39]
  IC50: 445 nM
[40]
  IC50: 3300 nM
[41]
  IC50: 294 nM
[42]
  IC50: 1770 nM
[43]
  IC50: 1090 nM
[44]
  IC50: 716 nM
[45]
  IC50: 689 nM
[46]
  IC50: 451 nM
[47]
  IC50: 2560 nM
[48]
  IC50: 540 nM
[49]
  IC50: 1070 nM
[50]
  IC50: 820 nM
[51]
  IC50: 830 nM
[52]
  IC50: 441 nM
[53]
  IC50: 289 nM
[54]
  IC50: 66.9 nM
[55]
  IC50: 484 nM
[56]
  IC50: 1240 nM
[57]
  IC50: 396 nM
[58]
  IC50: 350 nM
[59]
  IC50: 715 nM
[60]
  IC50: 790 nM
[61]
  IC50: 305 nM
[62]
  IC50: 2390 nM
[63]
  IC50: > 5120 nM
[64]
  IC50: > 5120 nM
[65]
  IC50: 477 nM
[66]
  IC50: 212 nM

— ChEMBL document CHEMBL1201861, “Genomics of Drug Sensitity in Cancer screening data, Wellcome Trust Sanger Institute”
